The values that follow come from US12637438B2, “Protoporphyrinogen oxidase inhibitors” (Enko Chem, Inc., priority 2021, dated 2026).

SMILES strings stand for the structures.

Common to all, as to type: in vivo
One data set relates to Setaria italica (SETIT). Description: Post-emergence herbicidal activity, spray at 100 ppm. The settings on record: % visual injury compared to treatment control 7 days after treatment. As to the method: (§1) Selected compounds of the invention were screened at 100 ppm concentration against Amaranthus retroflexus (AMARE), Setaria italica (SETIT), and Kochia/Bassia scoparia (KCHSC).
(§2) Accordingly, PPO susceptible weed seeds were sown in 5″×5″ pots by quadrant containing Miracle-Gro potting mix (Scotts Miracle-Gro Company, Marysville, OH, USA) and grown in a Conviron growth chamber with appropriate growth conditions (temperature of 26/22° C. with photoperiod 16/8 h light day/night and light intensity of 300 μmol m^−2 s^−1 supplemented by LED lamps). Relative humidity in the growth chamber was maintained at around 65%. Plants were grown until 2-4 leaf stage and thinned to 5-8 plants per quadrant per species.
(§3) Compounds were formulated in 25% Acetone, 1% Crop oil concentrate (COC-Agridex), 0.1% Tween-20, and 2.5% Ammonium sulphate (AMS). Three replicate pots were treated with each compound. Treatment consisting of the above formulation excluding active compound was applied as a treatment control (TC). Plants were treated with the test compound solution in a laboratory spray chamber fitted with 8003 flat fan nozzles calibrated to deliver 187-200 L ha^−1 at 269 kPa. Plants were placed back in the growth chamber and evaluated for % visual injury compared to TC 7 days after treatment (DAT). The data presented in Table 3 in which A represents a percentage control, where 100% control indicates complete inhibition of weed growth.

Data set [1] concerns Amaranthus retroflexus (AMARE). The description is as above. The note with it: % visual injury compared to treatment control 7 days after treatment. As to the method:
as §1, §2, §3

The subject of data set [2] is Kochia/Bassia scoparia (KCHSC). Described as above. The note with it: % visual injury compared to treatment control 7 days after treatment. As to the method: as §1, §2, §3
Data set [3] has as its system Setaria Italica (Foxtail millet). The data set can be described thus: Leaf penetration and translocation with and without crop oil concentrate adjuvant (COC). The settings on record: for Phloem mobility COC / Xylem mobility COC / Phloem mobility No-COC / Xylem mobility No-COC: 1.5 mM, 3×2 μL droplets on leaf, seven days after treatment; for Phloem mobility COC / Xylem mobility COC: with 1% v/v COC; for Phloem mobility No-COC / Xylem mobility No-COC: without COC; for leaf translocation: compared to compounds 920-4 and 920-6. As to the method:
Selected compounds of the invention, along with compounds 920-4 and 920-6 from Japanese Patent Application No. 06321920, were tested for leaf penetration, translocation, and herbicidal activity in a grass weed species when applied with or without an adjuvant to increase the compound cuticle penetration.
Four to five PPO susceptible Setarialtalica (Foxtail millet) seed (Ernst Conservation Seeds, Meadville, PA) were sown in each of the 1.5×1.5-inch 6 cell plug inserts containing Miracle-Gro™ potting mix (Scotts Miracle-Gro Company, Marysville, OH, USA) and grown in a Conviron growth chamber with appropriate growth conditions (temperature of 26/22° C. with photoperiod 16/8 h light day/night and light intensity of 300 μmol m^−2 s^−1 supplemented by LED lamps). Relative humidity in the growth chamber was maintained at around 65%. Plants were grown until 1-2 leaf stage (one expanded leaf and one emerging leaf) and thinned to single plant per cell.
Test compounds were formulated to a final concentration of 1.5 mM in 25% Acetone, 0.1% Tween-20 and 2.5% Ammonium sulphate (AMS) with or without the addition of 1% v/v Crop oil concentrate (COC, Agridex). A total of 6 μL was applied as 3×2 μL droplets on the adaxial surface of an emerged Setaria Italica leaf for each of the two compound solutions (with and without COC). Six replicate plants were treated with each compound. Treatment consisting of the above formulation excluding active compound was applied as a treatment control (TC). Plants were placed back in the growth chamber and, seven days after treatment, were evaluated for overall % visual injury compared to TC. Plants were also evaluated for rapid necrosis representative of PPO inhibition at the site of, acropetal to, and basipetal to the droplet application site to estimate the general, xylem, and phloem compound mobility, respectively. In general, compounds with necrosis only at the site of action were considered to be poorly mobile whereas necrosis in the emerging leaf indicates symplastic phloem movement and necrosis from leaf base to tip only on the applied leaf indicates apoplastic xylem movement.
The data are presented in Table 4 are relative to the TC treatment for which the plant and leaf injury percent is consider 0%. “A” represents a percentage leaf or plant injury between 80 and 100%; “B” represents a percentage leaf or plant injury of 20-80%; “C” represents a percentage control below 20%.

For data set [4], the system named is Amaranthus retroflexus (AMARE), Setaria italica (SETIT), and Kochia/Bassia scoparia (KCHSC). The data set can be described thus: Post-emergence herbicidal activity against weed species, overall statement. The note with it: concentration of 100 parts per million (PPM). As to the method: as §1, §2, §3

Take `C#CCN1C(=O)C(F)(F)Oc2cc(F)c(-c3c(F)c(F)c(F)c(F)c3F)cc21` [Compound 2, 2,2,7-trifluoro-6-(perfluorophenyl)-4-(prop-2-yn-1-yl)-2H-benzo[b][1,4]oxazin-3(4H)-one]: the “Post-emergence % control (100 PPM) SETIT” value in the data set with Setaria italica (SETIT) amounted to 58%. Also, in data set [1], the “Post-emergence % control (100 PPM) AMARE” value is listed as 98%. Also, the “Post-emergence % control (100 PPM) KCHSC” value in data set [2] was determined as 75%. For the same molecule, in data set [3], the “Phloem mobility COC” value was “A (“A” represents a percentage leaf or plant injury between 80 and 100%)”; the “Xylem mobility COC” value was “A (“A” represents a percentage leaf or plant injury between 80 and 100%)”; the “Phloem mobility No-COC” value is “A (“A” represents a percentage leaf or plant injury between 80 and 100%)”; the “Xylem mobility No-COC” value is “A (“A” represents a percentage leaf or plant injury between 80 and 100%)”. Also, in data set [3], the leaf translocation entry was “significant improved leaf translocation”. Moreover, in data set [4], the “herbicidal activity against weed species” value is “excellent herbicidal activity”.
Regarding `C#CCN1C(=O)C(F)(F)Oc2cc(F)c(-c3c(F)cc(F)c(F)c3F)cc21` [Compound 37, 2,2,7-trifluoro-4-(prop-2-yn-1-yl)-6-(2,3,4,6-tetrafluorophenyl)-2H-benzo[b][1,4]oxazin-3(4H)-one], the “Post-emergence % control (100 PPM) SETIT” value with Setaria italica (SETIT) came to 58%. Further, in data set [1], the “Post-emergence % control (100 PPM) AMARE” value amounted to 100%. In addition, in data set [2], the “Post-emergence % control (100 PPM) KCHSC” value was found to be 92%. Besides, in data set [3], the “Phloem mobility COC” value is “A (“A” represents a percentage leaf or plant injury between 80 and 100%)”; the “Xylem mobility COC” value is “A (“A” represents a percentage leaf or plant injury between 80 and 100%)”; the “Phloem mobility No-COC” value is “A (“A” represents a percentage leaf or plant injury between 80 and 100%)”; the “Xylem mobility No-COC” value is “A (“A” represents a percentage leaf or plant injury between 80 and 100%)”. For the same molecule, the leaf translocation entry in data set [3] is reported as “significant improved leaf translocation”. Further, the “herbicidal activity against weed species” value in data set [4] is reported as “excellent herbicidal activity”.
Turning to `C#CCN1C(=O)COc2cc(F)c(-c3c(F)cc(F)c(F)c3F)cc21` [Compound 52, 7-fluoro-4-(prop-2-yn-1-yl)-6-(2,3,4,6-tetrafluorophenyl)-2H-benzo[b][1,4]oxazin-3(4H)-one], the “Post-emergence % control (100 PPM) SETIT” value in the data set on Setaria italica (SETIT) was determined as 72%. The “Post-emergence % control (100 PPM) AMARE” value in data set [1] is on record as 100%. In addition, in data set [2], the “Post-emergence % control (100 PPM) KCHSC” value turned out to be 93%. In data set [3], the “Phloem mobility COC” value was “A (“A” represents a percentage leaf or plant injury between 80 and 100%)”; the “Xylem mobility COC” value is “A (“A” represents a percentage leaf or plant injury between 80 and 100%)”; the “Phloem mobility No-COC” value was “A (“A” represents a percentage leaf or plant injury between 80 and 100%)”; the “Xylem mobility No-COC” value is “A (“A” represents a percentage leaf or plant injury between 80 and 100%)”. For the same molecule, the leaf translocation result in data set [3] is “significant improved leaf translocation”. In data set [4], the “herbicidal activity against weed species” value is on record as “excellent herbicidal activity”.
As for `C#CCN1C(=O)COc2cc(F)c(-c3c(Cl)cc(C(F)(F)F)cc3Cl)cc21` [Compound 920-4, reference compound], in the data set on Setaria italica (SETIT), the “Post-emergence % control (100 PPM) SETIT” value came out at 38%. In addition, the “Post-emergence % control (100 PPM) AMARE” value in data set [1] worked out at 89%. In addition, the “Post-emergence % control (100 PPM) KCHSC” value in data set [2] was 52%. In data set [3], the “Phloem mobility COC” value was “A (“A” represents a percentage leaf or plant injury between 80 and 100%)”; the “Xylem mobility COC” value was “A (“A” represents a percentage leaf or plant injury between 80 and 100%)”; the “Phloem mobility No-COC” value is “C (“C” represents a percentage control below 20%)”; the “Xylem mobility No-COC” value is recorded as “C (“C” represents a percentage control below 20%)”.
For `C#CCN1C(=O)COc2cc(F)c(-c3ccc(Cl)c(Cl)c3Cl)cc21` [Compound 920-6, reference compound], in the data set on Setaria italica (SETIT), the “Post-emergence % control (100 PPM) SETIT” value is given as 18%. Further, in data set [1], the “Post-emergence % control (100 PPM) AMARE” value amounted to 85%. In addition, the “Post-emergence % control (100 PPM) KCHSC” value in data set [2] amounted to 21%. Further, in data set [3], the “Phloem mobility COC” value is “A (“A” represents a percentage leaf or plant injury between 80 and 100%)”; the “Xylem mobility COC” value was “A (“A” represents a percentage leaf or plant injury between 80 and 100%)”; the “Phloem mobility No-COC” value is recorded as “C (“C” represents a percentage control below 20%)”; the “Xylem mobility No-COC” value was “C (“C” represents a percentage control below 20%)”.
